Experimental data reported in ChEMBL document CHEMBL4308920, “Optimizing the Pharmacological Profile of New Bifunctional Antihyperlipidemic/Antioxidant Morpholine Derivatives” (ACS Med Chem Lett, 2019).

Tests used:
[1] = biological target: T1, Squalene synthase (Rattus norvegicus, UniProt Q02769); experiment: Inhibition of SQS in rat liver microsomes assessed as reduction in [3H]FPP conversion to squalene preincubated for 10 mins followed by [3H]FPP addition and measured after 10 mins by scintillation counting method
T1 sequence (Q02769 whole entry): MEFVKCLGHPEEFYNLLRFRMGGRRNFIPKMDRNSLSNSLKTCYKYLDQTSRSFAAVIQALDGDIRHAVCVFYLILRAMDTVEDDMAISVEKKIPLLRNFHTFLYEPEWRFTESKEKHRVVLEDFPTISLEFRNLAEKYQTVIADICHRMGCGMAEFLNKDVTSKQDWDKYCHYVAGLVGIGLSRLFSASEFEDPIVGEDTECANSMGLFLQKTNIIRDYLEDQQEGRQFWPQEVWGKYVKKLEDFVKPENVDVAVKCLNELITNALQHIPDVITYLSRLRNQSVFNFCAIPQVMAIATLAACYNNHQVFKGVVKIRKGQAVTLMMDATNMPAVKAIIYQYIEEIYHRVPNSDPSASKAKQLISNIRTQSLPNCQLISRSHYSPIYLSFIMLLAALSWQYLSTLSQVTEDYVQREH

[2] = biological target: T2, Squalene synthase (Rattus norvegicus) (UniProt Q02769); experiment: Potency index, ratio of 2-(biphenyl-4-yl)-4-methylmorpholin-2-ol hydrobromide IC50 to compound IC50 for inhibition of SQS in rat liver microsomes
T2 sequence (whole entry): T1 sequence (Q02769 whole entry)

[3] = biological target: T2, Squalene synthase (Rattus norvegicus); experiment: Potency index, ratio of 2-(4-(6-methoxynaphthalen-2-yl)phenyl)-4-methylmorpholin-2-ol hydrobromide IC50 to compound IC50 for inhibition of SQS in rat liver microsomes
[4] = tested on: Liver; experiment: Antioxidant activity in rat hepatic microsomes assessed as reduction in ferrous salt/ascorbic acid-induced lipid peroxidation of membrane lipids by measuring TBARS level after 45 mins by spectrophotometric method; type: functional, Microsome; conditions: 0.75 h
[5] = biological target: T2, Squalene synthase (Rattus norvegicus); experiment: Potency index, ratio of 4-methyl-2-(4-(naphthalen-2-yl)phenyl)morpholin-2-ol hydrobromide IC50 to compound IC50 for inhibition of SQS in rat liver microsomes
[6] = tested on: Mus musculus; experiment: Antihyperlipidemic activity in C57BL/6 mouse model of Triton WR1339-induced hyperlipidemia assessed as reduction in plasma total triglyceride level at 84 umol/kg, ip measured after 24 hrs relative to control; type: functional; parameters: scale not given: the % may be the effect or the level left
[7] = tested on: Mus musculus; experiment: Anti-inflammatory activity in C57BL/6 mouse assessed as inhibition of carrageenan-induced hind paw edema at 300 umol/kg, ip treated immediately after carrageenan challenge measured after 3.5 hrs relative to control; type: functional; conditions: C57BL/6, ip
[8] = tested on: Mus musculus; experiment: In vivo antioxidant activity in C57BL/6 mouse model of Triton WR1339-induced hyperlipidemia assessed as increase in total antioxidant capacity in plasma at 84 umol/kg, ip measured after 24 hrs relative to control; type: functional
[9] = tested on: Mus musculus; experiment: Antihypercholesterolemic activity in C57BL/6 mouse model of Triton WR1339-induced hyperlipidemia assessed as reduction in plasma total cholesterol level at 84 umol/kg, ip measured after 24 hrs relative to control; type: functional; parameters: scale not given: the % may be the effect or the level left
[10] = biological target: T1, Squalene synthase; experiment: Inhibition of SQS in rat liver microsomes assessed as reduction in [3H]FPP conversion to squalene after 45 mins by liquid scintillation counting method

Row | IC50 [1] | IC50 [4] | Compound | further results
1 | 0.014 µM | 198 µM | Br.CN1CCOC(OCCCS)(c2ccc(-c3ccc4ccccc4c3)cc2)C1 (centres undefined) | Activity [6]: 25%; Ratio IC50 [2]: < 136; inhibition in vivo at 300 µmol/kg [7]: 40%; Ratio IC50 [3]: < 136; TAC [8]: 20%; Activity [9]: 67%; Ratio IC50 [5]: < 136
2 | – | 25 µM | Cc1c(C)c2c(c(C)c1O)CCC(C)(C(=O)O)O2 (centres undefined) [TROLOX] | –
3 | 2.7 µM | 372 µM | CN1CCOC(OCCCS)(c2ccc(-c3ccccc3)cc2)C1 (centres undefined) | Ratio IC50 [2]: < 136; Ratio IC50 [3]: < 136; Ratio IC50 [5]: < 136
4 | 24.9 µM | 333 µM | CN1CCOC(OCCCO)(c2ccc(-c3ccccc3)cc2)C1 (centres undefined) | –
5 | 20.8 µM | 218 µM | CN1CC(c2ccc(-c3ccccc3)cc2)OC2CCCCC21 (centres undefined) | –
6 | – | > 500 µM | CC(C)(Sc1cc(C(C)(C)C)c(O)c(C(C)(C)C)c1)Sc1cc(C(C)(C)C)c(O)c(C(C)(C)C)c1 [PROBUCOL] | –
7 | 7.5 µM | 179 µM | c1ccc(-c2ccc(C3CN4CCCCC4CO3)cc2)cc1 (centres undefined) | –
8 | > 100 µM | 86.8 µM | CN1CCOC(c2ccc(-c3ccccc3)cc2)C1 (centres undefined) | –

Further lines, the compound ahead of its results:

Row | Compound | IC50 [1] | IC50 [4] | further results
9 | COc1ccc2cc(-c3ccc(C4(OCCCS)CN(C)CCO4)cc3)ccc2c1 (centres undefined) | 0.16 µM | 147 µM | Ratio IC50 [2]: < 136; Ratio IC50 [3]: < 136; Ratio IC50 [5]: < 136
10 | CN1CCOC(OCCCO[N+](=O)[O-])(c2ccc(-c3ccc4ccccc4c3)cc2)C1 (centres undefined) | 0.51 µM | 75.8 µM | –
11 | CN1CCSC(c2ccc(-c3ccccc3)cc2)C1 (centres undefined) | 15 µM | 299 µM | –
12 | COc1ccc2cc(-c3ccc(C4(OCCCO)CN(C)CCO4)cc3)ccc2c1 (centres undefined) | 29.4 µM | 211 µM | –
13 | CN1C=C(c2ccc(-c3ccccc3)cc2)OC2CCCCC21 (centres undefined) | 42 µM | 65.1 µM | –
14 | COc1ccc2cc(-c3ccc(C4(OCCCO[N+](=O)[O-])CN(C)CCO4)cc3)ccc2c1 (centres undefined) | 16.1 µM | 45 µM | –
15 | CN1CCSC(c2ccc3ccccc3c2)C1 (centres undefined) | 25.2 µM | 178 µM | –
16 | COc1cccc([C@H]2O[C@H](CC(=O)N3CCC(CC(=O)O)CC3)C(=O)N(CC(C)(C)COC(C)=O)c3ccc(Cl)cc32)c1OC [LAPAQUISTAT ACETATE] | – | – | IC50 [10]: 0.078 µM
17 | CN1CCOC(OCCCO)(c2ccc(-c3ccc4ccccc4c3)cc2)C1 (centres undefined) | 6.2 µM | 259 µM | –
